{
  "source": "ChEMBL document CHEMBL5325456",
  "about": "“5-(4-Hydroxyphenyl)-3H-1,2-dithiole-3-thione derivatives of brefeldin A: Design, synthesis and cytotoxicity in MDA-MB-231 human breast cancer cells” (Bioorg Med Chem, 2023)",
  "key": {"Cell membrane [1]": {"tested_on": "Cell membrane", "assay": "Induction of mitochondrial membrane potential loss in human MDA-MB-231 cells assessed as proportion of MMP decreased cells at 0.165 uM and measured for 48 hrs by JC-1 staining based flow cytometry assay (reference value: 4.40%)", "format": "subcellular", "design": "scale not given: the % may be the effect or the level left"}, "MDA-MB-231 [2]": {"tested_on": "MDA-MB-231", "assay": "Induction of apoptosis in human MDA-MB-231 cells assessed as necrotic cells at 82.5 nM incubated for 48 hrs by Annexin-V/FITC-PI staining based flow cytometry analysis (reference value: 0.99 %)", "format": "functional"}, "MDA-MB-231 [3]": {"tested_on": "MDA-MB-231", "assay": "Induction of apoptosis in human MDA-MB-231 cells assessed as early apoptotic cells at 0.33 uM incubated for 48 hrs by Annexin-V/FITC-PI staining based flow cytometry analysis (reference value: 2.93 %)", "format": "functional"}, "MDA-MB-231 [4]": {"tested_on": "MDA-MB-231", "assay": "Induction of DNA damage in human MDA-MB-231 cells assessed as tail DNA at 0.165 uM incubated for 48 hrs by Comet assay (reference value: 0.007 %)", "format": "functional"}, "MDA-MB-231 [5]": {"tested_on": "MDA-MB-231", "assay": "Induction of cell cycle arrest in human MDA-MB-231 cells assessed as accumulation of cells at S phase at 0.165 uM incubated for 48 hrs by flow cytometry analysis (reference value: 36.51%)", "format": "functional"}, "MDA-MB-231 [6]": {"tested_on": "MDA-MB-231", "assay": "Induction of apoptosis in human MDA-MB-231 cells assessed as late apoptotic cells at 82.5 nM incubated for 48 hrs by Annexin-V/FITC-PI staining based flow cytometry analysis (reference value: 2.34 %)", "format": "functional"}, "A-375": {"tested_on": "A-375", "assay": "Antiproliferative activity against human A-375 cells assessed as reduction in cell viability incubated for 48 hrs by CCk-8 assay", "format": "functional, cell-based", "details": "A-375, 48 h"}, "MDA-MB-231 [7]": {"tested_on": "MDA-MB-231", "assay": "Inhibition of cell migration in human MDA-MB-231 cells assessed as wound healing rate at 0.33 uM measured immediately by scratch wound healing assay (Rvb= 871.53 +/- 3.02 %)", "format": "functional", "design": "scale not given: the % may be the effect or the level left"}, "HeLa": {"tested_on": "HeLa", "assay": "Antiproliferative activity against human HeLa cells assessed as reduction in cell viability incubated for 48 hrs by CCk-8 assay", "format": "functional, cell-based"}, "A549": {"tested_on": "A549", "assay": "Antiproliferative activity against human A549 cells assessed as reduction in cell viability incubated for 48 hrs by CCk-8 assay", "format": "functional, cell-based", "details": "A549, 48 h"}, "MDA-MB-231 [8]": {"tested_on": "MDA-MB-231", "assay": "Induction of cell cycle arrest in human MDA-MB-231 cells assessed as accumulation of cells at G2 phase at 0.165 uM incubated for 48 hrs by flow cytometry analysis (reference value: 16.05 %)", "format": "functional"}, "MDA-MB-231 [9]": {"tested_on": "MDA-MB-231", "assay": "Inhibition of cell invasion in human MDA-MB-231 cells incubated for 24 hrs by crystal violet staining based transwell assay", "format": "functional", "details": "dose 82.5-330 nM"}, "DU-145": {"tested_on": "DU-145", "assay": "Antiproliferative activity against human DU-145 cells assessed as reduction in cell viability incubated for 48 hrs by CCk-8 assay", "format": "functional, cell-based", "details": "DU-145, 48 h"}, "MDA-MB-231 [10]": {"tested_on": "MDA-MB-231", "assay": "Inhibition of cell migration in human MDA-MB-231 cells assessed as wound healing rate at 0.165 uM measured immediately by scratch wound healing assay (Rvb= 871.53 +/- 3.02 %)", "format": "functional", "design": "scale not given: the % may be the effect or the level left"}, "MDA-MB-231 [11]": {"tested_on": "MDA-MB-231", "assay": "Induction of cell cycle arrest in human MDA-MB-231 cells assessed as accumulation of cells at S phase at 82.5 nM incubated for 48 hrs by flow cytometry analysis (reference value: 36.51%)", "format": "functional"}, "Cell membrane [12]": {"tested_on": "Cell membrane", "assay": "Induction of mitochondrial membrane potential loss in human MDA-MB-231 cells assessed as proportion of MMP decreased cells at 82.5 nM and measured for 48 hrs by JC-1 staining based flow cytometry assay (reference value: 4.40%)", "format": "subcellular", "design": "scale not given: the % may be the effect or the level left"}, "MDA-MB-231 [13]": {"tested_on": "MDA-MB-231", "assay": "Induction of apoptosis in human MDA-MB-231 cells assessed as viable cells at 0.33 uM incubated for 48 hrs by Annexin-V/FITC-PI staining based flow cytometry analysis (reference value: 93.74 %)", "format": "functional", "details": "read-out: Activity"}, "MDA-MB-231 [14]": {"tested_on": "MDA-MB-231", "assay": "Induction of apoptosis in human MDA-MB-231 cells assessed as viable cells at 0.165 uM incubated for 48 hrs by Annexin-V/FITC-PI staining based flow cytometry analysis (reference value: 93.74 %)", "format": "functional", "details": "read-out: Activity"}, "MDA-MB-231 [15]": {"tested_on": "MDA-MB-231", "assay": "Induction of DNA damage in human MDA-MB-231 cells assessed as tail DNA at 0.33 uM incubated for 48 hrs by Comet assay (reference value: 0.007 %)", "format": "functional"}, "MDA-MB-231 [16]": {"tested_on": "MDA-MB-231", "assay": "Induction of cell cycle arrest in human MDA-MB-231 cells assessed as accumulation of cells at G1 phase at 0.33 uM incubated for 48 hrs by flow cytometry analysis (reference value: 47.44 %)", "format": "functional"}, "MDA-MB-231 [17]": {"tested_on": "MDA-MB-231", "assay": "Inhibition of cell migration in human MDA-MB-231 cells assessed as wound healing rate at 82.5 nM measured for 24 hrs by scratch wound healing assay (Rvb= 230.22 +/- 32.21 %)", "format": "functional", "design": "scale not given: the % may be the effect or the level left"}, "[18]": {"assay": "Selectivity index, ratio of IC50 for antiproliferative activity against human L02 cells to IC50 for antiproliferative activity against human MDA-MB-231 cells", "format": "toxicity, cell-based", "details": "L02 cells and MDA-MB-231 cells, read-out: Ratio IC50"}, "MDA-MB-231 [19]": {"tested_on": "MDA-MB-231", "assay": "Induction of cell cycle arrest in human MDA-MB-231 cells assessed as accumulation of cells at G1 phase at 0.165 uM incubated for 48 hrs by flow cytometry analysis (reference value: 47.44 %)", "format": "functional"}, "HepG2": {"tested_on": "HepG2", "assay": "Antiproliferative activity against human HepG2 cells assessed as reduction in cell viability incubated for 48 hrs by CCk-8 assay", "format": "functional, cell-based", "details": "HepG2, 48 h"}, "MDA-MB-231 [20]": {"tested_on": "MDA-MB-231", "assay": "Induction of DNA damage in human MDA-MB-231 cells assessed as tail DNA at 82.5 nM incubated for 48 hrs by Comet assay (reference value: 0.007 %)", "format": "functional"}, "MDA-MB-231 [21]": {"tested_on": "MDA-MB-231", "assay": "Induction of apoptosis in human MDA-MB-231 cells assessed as late apoptotic cells at 0.33 uM incubated for 48 hrs by Annexin-V/FITC-PI staining based flow cytometry analysis (reference value: 2.34 %)", "format": "functional"}, "MDA-MB-231 [22]": {"tested_on": "MDA-MB-231", "assay": "Antiproliferative activity against human MDA-MB-231 cells assessed as reduction in cell viability incubated for 48 hrs by CCk-8 assay", "format": "functional, cell-based", "details": "MDA-MB-231, 48 h"}, "MDA-MB-231 [23]": {"tested_on": "MDA-MB-231", "assay": "Induction of apoptosis in human MDA-MB-231 cells assessed as late apoptotic cells at 0.165 uM incubated for 48 hrs by Annexin-V/FITC-PI staining based flow cytometry analysis (reference value: 2.34 %)", "format": "functional"}, "Cell membrane [24]": {"tested_on": "Cell membrane", "assay": "Induction of mitochondrial membrane potential loss in human MDA-MB-231 cells assessed as proportion of MMP decreased cells at 0.33 uM and measured for 48 hrs by JC-1 staining based flow cytometry assay (reference value: 4.40%)", "format": "subcellular", "design": "scale not given: the % may be the effect or the level left"}, "MDA-MB-231 [25]": {"tested_on": "MDA-MB-231", "assay": "Inhibition of cell migration in human MDA-MB-231 cells assessed as wound healing rate at 0.33 uM measured for 24 hrs by scratch wound healing assay (Rvb= 230.22 +/- 32.21 %)", "format": "functional", "design": "scale not given: the % may be the effect or the level left"}, "MDA-MB-231 [26]": {"tested_on": "MDA-MB-231", "assay": "Inhibition of cell adhesion in human MDA-MB-231 cells assessed as reduction in cell adhesion by measuring fluorescence intensity at 82.5 to 330 nM incubated for 48 hrs by flow cytometry analysis", "format": "functional, cell-based", "details": "dose 82.5-330 nM"}, "MDA-MB-231 [27]": {"tested_on": "MDA-MB-231", "assay": "Inhibition of cell migration in human MDA-MB-231 cells assessed as wound healing rate at 82.5 nM measured immediately by scratch wound healing assay (Rvb= 871.53 +/- 3.02 %)", "format": "functional", "design": "scale not given: the % may be the effect or the level left"}},
  "note": "Calls of active or inactive are those of the source. The rule behind the calls is not given here.",
  "data": [
    {"smiles": "C[C@H]1CCC/C=C/[C@@H]2C[C@H](O)C[C@H]2[C@H](OC(=O)CCCC(=O)OCCOc2ccc(-c3cc(=S)ss3)cc2)/C=C/C(=O)O1", "values": [
      {"measurement": "Activity", "setting": "Cell membrane [1]", "result": 31.7, "unit": "%"},
      {"measurement": "Activity", "setting": "MDA-MB-231 [2]", "result": 2.12, "unit": "%"},
      {"measurement": "Activity", "setting": "MDA-MB-231 [3]", "result": 21.05, "unit": "%"},
      {"measurement": "Activity", "setting": "MDA-MB-231 [4]", "result": 39.11, "unit": "%"},
      {"measurement": "Activity", "setting": "MDA-MB-231 [5]", "result": 30.39, "unit": "%"},
      {"measurement": "Activity", "setting": "MDA-MB-231 [6]", "result": 5.82, "unit": "%"},
      {"measurement": "IC50", "setting": "A-375", "result": 1820, "unit": "nM"},
      {"measurement": "Activity", "setting": "MDA-MB-231 [7]", "result": 844.92, "unit": "%"},
      {"measurement": "IC50", "setting": "HeLa", "result": 850, "unit": "nM"},
      {"measurement": "IC50", "setting": "A549", "result": 580, "unit": "nM"},
      {"measurement": "Activity", "setting": "MDA-MB-231 [8]", "result": 9.52, "unit": "%"},
      {"measurement": "inhibition", "setting": "MDA-MB-231 [9]", "result": "Dose-Dependent Effect"},
      {"measurement": "IC50", "setting": "DU-145", "result": 690, "unit": "nM"},
      {"measurement": "Activity", "setting": "MDA-MB-231 [10]", "result": 830.55, "unit": "%"},
      {"measurement": "Activity", "setting": "MDA-MB-231 [11]", "result": 30.23, "unit": "%"},
      {"measurement": "Activity", "setting": "Cell membrane [12]", "result": 16.3, "unit": "%"},
      {"measurement": "viability at 0.33 µM", "setting": "MDA-MB-231 [13]", "result": 43.2, "unit": "%"},
      {"measurement": "viability at 0.165 µM", "setting": "MDA-MB-231 [14]", "result": 71.7, "unit": "%"},
      {"measurement": "Activity", "setting": "MDA-MB-231 [15]", "result": 49.49, "unit": "%"},
      {"measurement": "Activity", "setting": "MDA-MB-231 [16]", "result": 69.88, "unit": "%"},
      {"measurement": "Activity", "setting": "MDA-MB-231 [17]", "result": 383.42, "unit": "%"},
      {"measurement": "selectivity ratio", "setting": "[18]", "result": 5.3},
      {"measurement": "Activity", "setting": "MDA-MB-231 [19]", "result": 60.09, "unit": "%"},
      {"measurement": "IC50", "setting": "HepG2", "result": 750, "unit": "nM"},
      {"measurement": "Activity", "setting": "MDA-MB-231 [20]", "result": 20.49, "unit": "%"},
      {"measurement": "Activity", "setting": "MDA-MB-231 [21]", "result": 31.61, "unit": "%"},
      {"measurement": "IC50", "setting": "MDA-MB-231 [22]", "result": 330, "unit": "nM"},
      {"measurement": "Activity", "setting": "MDA-MB-231 [23]", "result": 16.31, "unit": "%"},
      {"measurement": "Activity", "setting": "Cell membrane [24]", "result": 49.8, "unit": "%"},
      {"measurement": "Activity", "setting": "MDA-MB-231 [25]", "result": 610.67, "unit": "%"},
      {"measurement": "inhibition", "setting": "MDA-MB-231 [26]", "result": "Active"},
      {"measurement": "Activity", "setting": "MDA-MB-231 [27]", "result": 832.33, "unit": "%"}
    ]}
  ]
}
